Drawing on ChEMBL document CHEMBL1142409, “Synthetic ligands that activate and inhibit a quorum-sensing regulator in Pseudomonas aeruginosa” (Bioorg Med Chem Lett, 2008), this text covers IC50, inhibition and Activity for 19 compounds.

A value given as a limit tells only on which side of the number the result lay.

Assay [1] has as its target QscR (Pseudomonas aeruginosa). Briefly: Antagonist activity at Pseudomonas aeruginosa QscR expressed in Escherichia coli assessed as inhibition of dodecanoyl homoserine lactone induced production of beta-galactosidase.
Assay [2] concerns the target T1, PhzR (Pseudomonas aeruginosa) (UniProt Q9RMS5).
T1 sequence (whole entry): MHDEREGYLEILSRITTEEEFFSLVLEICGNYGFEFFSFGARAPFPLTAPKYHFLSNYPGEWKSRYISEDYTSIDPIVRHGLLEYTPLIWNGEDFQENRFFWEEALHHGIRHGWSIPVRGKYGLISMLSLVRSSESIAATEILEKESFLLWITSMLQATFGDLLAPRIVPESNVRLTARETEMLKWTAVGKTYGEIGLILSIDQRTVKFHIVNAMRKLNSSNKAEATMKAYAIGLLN
The assay can be described thus: Antagonist activity at Pseudomonas aeruginosa QscR expressed in Escherichia coli assessed as inhibition of dodecanoyl homoserine lactone induced production of beta-galactosidase at 5 uM. Type of assay: functional.

Assay [3] deals with T1, PhzR (Pseudomonas aeruginosa). The assay can be described thus: Inhibition of binding of Pseudomonas aeruginosa QscR to DNA at 200 uM in presence of 3-oxo-dodecanoyl -L-homoserine lactone by electromobility shift assay.
For assay [4], the target named is T2, Transcriptional activator protein LasR (Pseudomonas aeruginosa (strain ATCC 15692 / PAO1 / 1C / PRS 101 / LMG12228)) (UniProt P25084).
T2 sequence (whole entry): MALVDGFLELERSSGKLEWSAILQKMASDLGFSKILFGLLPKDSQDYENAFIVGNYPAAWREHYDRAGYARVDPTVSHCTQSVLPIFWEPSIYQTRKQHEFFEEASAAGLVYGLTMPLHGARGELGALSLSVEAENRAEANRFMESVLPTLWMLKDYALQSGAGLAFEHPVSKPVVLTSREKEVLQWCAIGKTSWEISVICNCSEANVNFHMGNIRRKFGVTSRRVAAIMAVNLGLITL
Briefly: Inhibition of Pseudomonas aeruginosa LasR. More on the design: concentration or dose not given beside the values. The conditions noted are these: concentration not given here.

Another assay concerns the target T3, (Pseudomonas aeruginosa) (UniProt Q9RMS5).
T3 sequence (whole entry): T1 sequence (whole entry)
Briefly: Agonist activity at Pseudomonas aeruginosa QscR expressed in Escherichia coli assessed as production of beta-galactosidase at 5 uM relative to dodecanoyl homoserine lactone. Type of assay: functional.

For the compound `CC(C)(C)OC(=O)NCc1ccc(C(=O)N[C@H]2CCOC2=O)cc1`, the IC50 in assay [1] was determined as 200 nM. Besides, the inhibition in assay [2] came to 77%; in assay [3] it was 59%. As to `O=C(Cc1cccc(Br)c1)N[C@H]1CCOC1=O`, the inhibition in assay [4] came to 50%; in assay [2], 71%. With `O=C(CC(=O)N[C@@H]1CCOC1=O)Cc1ccccc1`, the Activity on (Pseudomonas aeruginosa) turned out to be 59%. Take `O=C(Cc1cccc([N+](=O)[O-])c1)N[C@H]1CCOC1=O`: the inhibition in assay [4] worked out at 50%; in assay [2], 71%.

As to `O=C(N[C@H]1CCOC1=O)c1ccc(Br)cc1`, the IC50 in assay [1] stood at 180 nM. In addition, the figures for the inhibition in assay [2] and in assay [3] were 78% and 71%, respectively. For the compound `O=C(Cc1cccc(I)c1)N[C@H]1CCOC1=O`, the inhibition in assay [4] was 50%; in assay [2], 70%. On to `O=C(CCc1ccc(Br)cc1)N[C@H]1CCOC1=O`, for which the Activity on (Pseudomonas aeruginosa) was found to be 64%. Also, the inhibition in assay [4] is > 50%.

With `CCCCCC(=O)CC(=O)N[C@H]1CCOC1=O`, the Activity at (Pseudomonas aeruginosa) came to 74%. Further, the inhibition in assay [4] was > 50%. `CCCCCCCCCCCC(=O)CC(=O)N[C@H]1CCOC1=O`: the Activity on (Pseudomonas aeruginosa) was 78%. Consider `CCCc1ccc(C(=O)CCC(=O)N[C@H]2CCOC2=O)cc1`, for which the Activity on (Pseudomonas aeruginosa) turned out to be 54%. On the same count and under the same terms, the result for `CC(C)(C)OC(=O)Nc1ccc(CC(=O)N[C@H]2CCOC2=O)cc1` reads 61%; that for `CCCCCCCCCC(=O)CC(=O)N[C@H]1CCOC1=O`, 109%. Consider `O=C(Cc1ccc(-c2ccccc2)cc1)N[C@H]1CCOC1=O`, for which the inhibition in assay [4] was found to be 20%; in assay [2], 88%; in assay [3], 100%. Further, the IC50 in assay [1] stood at 30 nM. As to `CCCCCCCCCC(=O)N[C@H]1CCOC1=O`, at (Pseudomonas aeruginosa), the Activity turned out to be 104%.

`CCCCCCCCc1ccc(C(=O)N[C@H]2CCOC2=O)cc1`: the inhibition was found to be 76% in assay [2] and 100% in assay [3]. As to `O=C(Cc1cccc(Cl)c1)N[C@H]1CCOC1=O`, the inhibition was determined as 50% in assay [4] and 73% in assay [2]. On to `CCOc1ccc(CC(=O)N[C@H]2CCOC2=O)cc1`, for which, in assay [1], the IC50 was determined as 160 nM. Further, the inhibition turned out to be 75% in assay [2] and 82% in assay [3]. For the compound `CCCCCCCC(=O)N[C@H]1CCOC1=O`, on (Pseudomonas aeruginosa), the Activity stood at 59%. Further, the inhibition in assay [4] was > 50%. For the compound `CCCCCCCCCCCS(=O)(=O)N[C@H]1CCOC1=O`, the Activity on (Pseudomonas aeruginosa) is 51%.

In general, IC50 refers to the concentration that inhibits the measured activity by half. By inhibition is commonly meant the relative decrease from the control value, in per cent.
